# Measured values from patent EP2695891B1, “OCTAPEPTIDE, RADIOPHARMACEUTICAL AGENT BASED THEREON AND METHOD FOR DIAGNOSING TUMORS” (Aktsionernoe Obschestvo "Pharm-Sintez", priority 2011, dated 2018).
# Where two headings read alike, the source gives them in different places.
# Tests used:
# in vivo = settings: female, F1 CBAxC57B1 hybrids, mouse, iv, total radioactivity
# Experimental: (§1) In vivo experiments were conducted using laboratory female mice (F1 CBAxC57B1 hybrids, 18-20g). The animals were obtained from the brooder of the Biomedical Technology Research Centre at the Russian Academy of Medical Sciences in Andreevka. Pigmented B16 mice melanoma was tangled. B16 melanoma cells suspension was administered SC in aseptic conditions. Tumour growth was investigated visually. The animals were enrolled into the experiment 9-12 days after the inoculation, when the tumour diameter was 8-12cm.
# (§2) During the experiment the animals were housed in standard conditions (special room, recommended food, free access to fresh water, natural lighting).
# (§3) Urinary bladder filling was achieved by suturing the outer urethral orifice. The radioactivity in the sampled organs and tissues was measured by the direct radiometry method. 5 experiments were conducted, at least 3 animals were used for each experimental point.
# B16 melanoma [1] = assay: potency distribution in mice with tangled B16 melanoma after IV administration (direct radiometry of organs and tissues); settings: for Urinary bladder: full urinary bladder; for Blood: mice with B16 melanoma
# Experimental: as §1, §2, §3
# [2] = as above; settings: female, F1 CBAxC57B1 hybrids, mouse, tumour and muscle, iv, total radioactivity
# Experimental: as §1, §2, §3
# B16 melanoma [3] = settings: mouse, in vivo
# Experimental: as §1, §2, §3
SMILES,Kidneys (B16 melanoma [1]; 30 min after IV administration),Liver (B16 melanoma [1]; 30 min after IV administration),Muscle (B16 melanoma [1]; 30 min after IV administration) [%/g],Tumour (B16 melanoma [1]; 30 min after IV administration) [%/g],Blood (B16 melanoma [1]; 30 min after IV administration),Kidneys (B16 melanoma [1]; 60 min after IV administration),Liver (B16 melanoma [1]; 60 min after IV administration),Muscle (B16 melanoma [1]; 60 min after IV administration) [%/g],Tumour (B16 melanoma [1]; 60 min after IV administration) [%/g],Blood (B16 melanoma [1]; 60 min after IV administration),other results
"C[C@@H](O)[C@H](NC(=O)[C@@H]1CSSC[C@H](NC(=O)[C@H](CCCCN)NC(=O)CN2CCN(CC(=O)O)CCN(CC(=O)O)CCN(CC(=O)O)CC2)C(=O)N[C@@H](Cc2ccc(O)cc2)C(=O)N[C@H](Cc2c[nH]c3ccccc23)C(=O)N[C@@H](CCCCN)C(=O)N[C@@H]([C@@H](C)O)C(=O)N1)C(=O)O [1a, marked ^68Ga, metal not drawn]",,,,,,,,,,,tissue to tissue ratio at 0.5 h (in vivo): 2.4
"C[C@@H](O)[C@H](NC(=O)[C@@H]1CSSC[C@H](NC(=O)[C@@H](N)CCCCNC(=O)CN2CCN(CC(=O)O)CCN(CC(=O)O)CCN(CC(=O)O)CC2)C(=O)N[C@@H](Cc2ccc(O)cc2)C(=O)N[C@H](Cc2c[nH]c3ccccc23)C(=O)N[C@@H](CCCCN)C(=O)N[C@@H]([C@@H](C)O)C(=O)N1)C(=O)O [1b, marked ^68Ga, metal not drawn]",3.4 ± 0.3 % of the administered dose,1.8 ± 0.7 % of the administered dose,0.6 ± 0.1,2.5 ± 0.7,2.4 ± 0.4 % of the administered dose,5.4 ± 0.6 % of the administered dose,1.1 ± 0.1 % of the administered dose,0.06 ± 0.01,1.2 ± 0.2,0.5 ± 0.07 % of the administered dose,Urinary bladder (B16 melanoma [1]; 30 min after IV administration): 53.4 ± 7.7 % of the administered dose; Urinary bladder (B16 melanoma [1]; 60 min after IV administration): 35.5 ± 3.1 % of the administered dose; tissue to tissue ratio at 0.5 h [2]: 4.2
C[C@@H](O)[C@H](NC(=O)[C@@H]1CSSC[C@H](NC(=O)[C@H](CCCCN)NC(=O)CN2CCN(CC(=O)O)CCN(CC(=O)O)CCN(CC(=O)O)CC2)C(=O)N[C@@H](Cc2ccc(O)cc2)C(=O)N[C@H](Cc2c[nH]c3ccccc23)C(=O)N[C@@H](CCCCN)C(=O)N[C@@H]([C@@H](C)O)C(=O)N1)C(=O)O [Compound 1a],,,,,,,,,,,tissue to tissue ratio at 1 h (in vivo): 7.5; accumulation in tumour as compared to ^68Ga-marked DE (B16 melanoma [3]): larger; blood clearance as compared to ^68Ga-marked DE (B16 melanoma [3]): faster blood clearance; renal clearance as compared to ^68Ga-marked DE (B16 melanoma [3]): faster renal clearance
C[C@@H](O)[C@H](NC(=O)[C@@H]1CSSC[C@H](NC(=O)[C@@H](N)CCCCNC(=O)CN2CCN(CC(=O)O)CCN(CC(=O)O)CCN(CC(=O)O)CC2)C(=O)N[C@@H](Cc2ccc(O)cc2)C(=O)N[C@H](Cc2c[nH]c3ccccc23)C(=O)N[C@@H](CCCCN)C(=O)N[C@@H]([C@@H](C)O)C(=O)N1)C(=O)O [Compound 1b],,,,,,,,,,,"accumulation in tumour as compared to ^68Ga-marked comparison substance (B16 melanoma [1]; 60 min after administration, fold higher than DE): 2.4 times; accumulation in tumour as compared to ^68Ga-marked DE (B16 melanoma [1]; ^68Ga-marked, in words): larger; blood clearance as compared to ^68Ga-marked DE (B16 melanoma [1]; ^68Ga-marked, in words): faster blood clearance; renal clearance as compared to ^68Ga-marked DE (B16 melanoma [1]; ^68Ga-marked, in words): faster renal clearance; ratio of accumulation in tumour and muscle as compared to DE (B16 melanoma [1]; both in 30 and in 60 minutes after administration, in words): higher; tissue to tissue ratio at 1 h [2]: 20"
"C[C@@H](O)[C@H](NC(=O)[C@@H]1CSSC[C@H](NC(=O)[C@@H](Cc2ccccc2)NC(=O)CN2CCN(CC(=O)O)CCN(CC(=O)O)CCN(CC(=O)O)CC2)C(=O)N[C@@H](Cc2ccc(O)cc2)C(=O)N[C@H](Cc2c[nH]c3ccccc23)C(=O)N[C@@H](CCCCN)C(=O)N[C@@H]([C@@H](C)O)C(=O)N1)C(=O)O [DE, marked ^68Ga, metal not drawn, reference compound]",1.6 ± 0.6 % of the administered dose,2.8 ± 1.5 % of the administered dose,0.6 ± 0.04,1.0 ± 0.2,2.6 ± 0.5 % of the administered dose,1.6 ± 0.6 % of the administered dose,2.8 ± 0.5 % of the administered dose,0.5 ± 0.04,0.5 ± 0.24,2.6 ± 0.6 % of the administered dose,
